{"source": "patent US20170119806A1", "about": "“[…] LACTONE DERIVATIVES AND METHODS OF MAKING AND USING THEREOF” (OHIO STATE INNOVATION FOUNDATION, priority 2014, published 2017)", "key": {"[1]": {"tested_on": "CD4+ or CD8+ T cells", "assay": "T cell IFN-γ production (intracellular flow cytometry in PBMCs)", "type": "cell-based, human", "conditions": "10 μM PL-C, 18 h, with IL-12 or IL-15; listed as PL-C", "experimental": "(A) Human […] were treated with DMSO vehicle control or 10 μM PL-C for 18 hours in the presence of IL-12 (10 ng/mL) or IL-15 (100 ng/mL), as described in FIG. 37C. The cells were harvested for intracellular flow cytometry to determine the frequency of IFN-γ^+ cells in CD56^−CD3^+[…] or CD56^−CD3^+CD8^+T. Representative data from 1 out of 5 donors are shown. (B) Purified primary NK cells were treated with IL-12 (10 ng/mL) or IL-15 (100 ng/mL) with or without 10 μM PL-C for 8 hours and were sequentially co-cultured with […] labeled ARH-77 cells at various effector/target cell ratios for additional 4 hours. ^51Cr release was measured by a TopCount counter. Data shown are the means of 3 donors. […] Error bars represent S.D. (C) Purified primary NK cells were treated with 10 μM PL-C in the presence of IL-12 (10 ng/mL) (top) or IL-15 (100 ng/mL) (bottom) for 12 hours, and cell pellets were harvested for detecting granzyme A (GZMA), granzyme B (GZMB), perforin (PRF1) and Fas (Fasl) mRNA expression level by real-time RT-PCR. Data shown are the means of 6 donors. p>0.05, vehicle control versus PL-C in all panels. Error bars represent S.D.\nIntracellular flow cytometry. […] Data were acquired using an LSRII (BD Biosciences) flow cytometer and analyzed using FlowJo software (Tree Star, Ashland, Oreg.)."}, "[2]": {"tested_on": "TLR1 or TLR6", "assay": "TLR activation assessment (NF-κB luciferase reporter in HEK293T)", "type": "cell-based, human", "conditions": "various concentrations of PL-C, 24 h"}}, "note": "“Also recorded” adds a separate entry of the source.", "data": [{"smiles": "COc1cc2c(OC3OCC(O)C(O)C3O)c3c(c(-c4ccc5c(c4)OCO5)c2cc1OC)C(=O)OC3", "note": "(centres unmarked) [Compound 4, Phyllanthusmin C]", "values": [{"measurement": "T cell IFN-γ production", "setting": "[1]", "value": "little or no; also recorded: negligibly activated T cell IFN-γ production; also recorded: few, if any"}, {"measurement": "NF-κB luciferase reporter activity in TLR1- or TLR6-transfected 293T cells", "setting": "[2]", "value": "induce luciferase reporter activity in a dose-dependent fashion"}]}]}
